Results: patent publication US8389509B2, “Substituted pyrazole compounds” (Bristol-Myers Squibb Company, priority 2009, dated 2013)

Tests used:
S1P1 [1] = target: T1, S1P1 (Homo sapiens, UniProt P21453); test: Method A: Receptor [35S] GTPγS Binding Assay, S1P1; format: biochemical
T1 construct: expressed in transfected cells; host or cells: CHO cells
Procedure: (§1) Method A: Receptor [35S] GTPγS Binding Assays
(§2) Compounds were loaded in a 384 FALCON® v-bottom plate (0.5 μl/well in a 3-fold dilution). Membranes prepared from S1P1/CHO cells or EDG3-Gal5-bla HEK293T cells were added to the compound plate (40 μl/well, final protein 3 μg/well) with MULTIDROP®. [^35S]GTP (1250 Ci/mmol, Perkin Elmer) was diluted in assay buffer: 20 mM HEPES, pH7.5, 10 mM MgCl2, 150 mM NaCl, 1 mM EGTA, 1 mM DTT, 10 μM GDP, 0.1% fatty acid free BSA, and 10 μg/ml Saponin to 0.4 nM. 40 μl of the [^35S] GTP solution was added to the compound plate with a final concentration of 0.2 nM. The reaction was kept at room temperature for 45 min. At the end of incubation, all the mixtures in the compound plate were transferred to a 384 well FB filter plates via GPCR robot system. The filter plate was washed with water 4 times by using the modified manifold Embla plate washer and dried at 60° C. for 45 min. 30 μA of MicroScint 20 scintillation fluid was added to each well for counting at Packard TOPCOUNT®. EC50 is defined as the agonist concentration that corresponds to 50% of the Ymax (maximal response) obtained for each individual compound tested.
(§3) Compounds of the present invention and Comparative Compound A were tested in the Receptor [^35S] GTPγS Binding Assays (Method A) and Receptor [^35S] In some instances, the value is an average of multiple experiments where N is the number of experiments conducted that provided satisfactory dose response curves. When more than one batch of an example was tested, the value presented is from a batch which allowed a comparison of GTPγS S1P1 and GTPγS S1P3 in which the most number of experiments were performed. Preferably, the same batch was examined in Method A and Method B. Data was not averaged across different batches of an example compound.

S1P1 [2] = target: T1, S1P1; test: Method B: Receptor [35S] GTPγS SPA Binding Assay, S1P1; format: biochemical
Procedure: Method B: Receptor [^35S] GTPγS SPA Binding Assays
Membranes prepared from S1P1 or S1P3 transfected CHO cells (2 μg protein) were incubated in 96-well white plates (CORNING® 3693) with test compounds diluted in DMSO, in 50 μl of reaction mixture containing 7.5 μA WGA-PVT beads (20 mg/ml), and 5 μM GDP, 20 mM HEPES pH 7.4, 100 mM NaCl, 1 mM EDTA, 5 mM MgCl2, 10 μg/ml saponin, 0.1% BSA, and 1 μM leupeptin. The assay was initiated with the addition of […] of 0.2 nM [^35S]-GTPγS (1250 Ci/mmol; NEN) in assay buffer. After 90 min incubation at room temperature, spin the plate at 1000 rpm for 5 min. The bound radionuclides were measured at TOPCOUNT®, expressed as % response relative to S1P (1 μM) activation. Data was analyzed using the four parameter logistic equation in Excel. The four parameters in the equation, Y=A+((B−A)/(1+((EC50/X)^D))), are described as following: A is the Y value (agonist activity) at the bottom plateau; B is the Y value at the top plateau; EC50 is the X value (agonist concentration) when the response is halfway between bottom and top; D is Hill coefficient. Curves were not generated for compounds having Ymax values were below 50%.
as §3

circulating lymphocytes = test: Blood Lymphocyte Reduction Assay (BLR) in mice; format: in vivo, BALB/c mice; conditions: oral
Procedure: Blood Lymphocyte Reduction Assay (BLR) in Rodents
Lewis rats or BALB/c mice were dosed orally with test article (as a solution or suspension in the vehicle) or vehicle alone (polyethylene glycol 300, “PEG300”). Blood was drawn at 4 hr and 24 h by retro-orbital bleeding. Blood lymphocyte counts were determined on an ADVIA 120 Hematology Analyzer (Siemens Healthcare Diagnostics). The results were measured as a reduction in the percentage of circulating lymphocytes as compared to the vehicle treated group at the 4 hr and 24 hr measurement. The results represent the average results of all animals within each treatment group (n=3-4).
Compounds of the present invention were tested in the Blood Lymphocyte Reduction assay (BLR) described hereinabove and the results are shown in Table D for rats and Table E for mice.

Lewis rats = test: Rat Adjuvant Induced Arthritis Assay (AA); format: in vivo; conditions: for Paw Swelling (mL) on Day 20, Mean: vehicle mean 2.11
Procedure: Rat Adjuvant Induced Arthritis Assay (AA)
Male Lewis rats (150-175 g; Harlan, n=8 treatment group) were immunized at the base of the tail with 100 μl of 10 mg/ml freshly ground Mycobacterium butyricum (Difco Laboratories) in incomplete Freund's adjuvant (sigma). Animals were dosed once daily with the test article (as a solution or suspension in the vehicle) or vehicle alone (polyethylene glycol 300, “PEG300”) starting from the day of immunization. The volumes of their hind paws were measured in a water displacement plethysmometer (Ugo Basile, Italy). The baseline paw measurements were taken before onset of the disease (between day 7 to day 10). The paw measurements were then taken three times a week until the end of the study on day 20 to 21. All procedures involving animals were reviewed and approved by the Institutional Animal Care Use Committee.
Compounds of the present invention were tested in the Rat Adjuvant Induced Arthritis assay described hereinabove and the results are shown in Table F and Table G.

S1P3 = S1P3 (Homo sapiens, UniProt Q99500); test: Method A: Receptor [35S] GTPγS Binding Assay, S1P3; format: biochemical; parameters: expressed in transfected cells; conditions: EDG3-Gal5-bla HEK293T cell membranes
Procedure: as §1, §2, §3

T1 sequence (P21453 whole entry): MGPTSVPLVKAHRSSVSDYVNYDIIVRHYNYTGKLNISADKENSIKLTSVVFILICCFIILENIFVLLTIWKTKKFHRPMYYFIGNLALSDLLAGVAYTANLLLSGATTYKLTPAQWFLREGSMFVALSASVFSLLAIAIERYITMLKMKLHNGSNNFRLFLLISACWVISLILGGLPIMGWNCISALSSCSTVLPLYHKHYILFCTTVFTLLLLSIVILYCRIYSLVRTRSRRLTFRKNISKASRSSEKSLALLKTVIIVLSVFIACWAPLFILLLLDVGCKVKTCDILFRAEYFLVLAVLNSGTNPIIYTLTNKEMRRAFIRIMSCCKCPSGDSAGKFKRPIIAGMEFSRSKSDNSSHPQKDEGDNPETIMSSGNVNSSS
Chain of S1P3 (Q99500 whole entry): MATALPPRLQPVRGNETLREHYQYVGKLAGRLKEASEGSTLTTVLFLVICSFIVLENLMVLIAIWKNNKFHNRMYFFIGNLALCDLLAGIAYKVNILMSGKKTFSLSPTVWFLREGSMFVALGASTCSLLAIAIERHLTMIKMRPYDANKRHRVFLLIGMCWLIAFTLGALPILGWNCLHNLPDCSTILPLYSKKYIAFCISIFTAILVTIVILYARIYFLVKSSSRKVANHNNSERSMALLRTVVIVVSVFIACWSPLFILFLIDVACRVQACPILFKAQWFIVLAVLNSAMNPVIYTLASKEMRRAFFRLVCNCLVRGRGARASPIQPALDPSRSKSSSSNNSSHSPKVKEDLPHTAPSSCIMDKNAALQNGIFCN

- EC50 (S1P1 [1]; Method A, S1P1/CHO cell membranes): 2.9 nM
- GTPγS S1P3/S1P1 (Method A) (S1P1 [1]; ratio of S1P3 EC50 to S1P1 EC50, Method A): 2,300
- EC50 (S1P1 [2]; Method B (SPA), S1P1 transfected CHO cell membranes): 0.5 nM
- GTPγS S1P3/S1P1 (Method B) (S1P1 [2]; ratio of S1P3 EC50 to S1P1 EC50, Method B): 8,800
- EC50 (S1P3): 6700 nM
SMILES: O=C(O)C1CN(Cc2ccc(-c3noc(-c4cnn(-c5ccccn5)c4C(F)(F)F)n3)cc2)C1 [Example 1, 1-(4-(5-(1-(Pyridin-2-yl)-5-(trifluoromethyl)-1H-pyrazol-4-yl)-1,2,4-oxadiazol-3-yl)benzyl)azetidine-3-carboxylic acid]
- % reduction in lymphocytes at 4 hr. (circulating lymphocytes; 0.3 mg/kg): 74%
- % reduction in lymphocytes at 24 hr. (circulating lymphocytes; 0.3 mg/kg): 30%
- % reduction in lymphocytes at 4 hr. (circulating lymphocytes; 1.0 mg/kg): 85%
- % reduction in lymphocytes at 24 hr. (circulating lymphocytes; 1.0 mg/kg): 68%
- % reduction in lymphocytes at 4 hr. (circulating lymphocytes; 3.0 mg/kg): 85%
- % reduction in lymphocytes at 24 hr. (circulating lymphocytes; 3.0 mg/kg): 76%
- % reduction in lymphocytes at 4 hr. (circulating lymphocytes; 10.0 mg/kg): 84%
- % reduction in lymphocytes at 24 hr. (circulating lymphocytes; 10.0 mg/kg): 88%
- Paw Swelling (mL) on Day 20, Mean (Lewis rats; 1.0 mg/kg once daily): 2.36 mL
- Paw Swelling (mL) on Day 20, Mean (Lewis rats; 3.0 mg/kg once daily): 1.45 mL
- Paw Swelling (mL) on Day 20, Mean (Lewis rats; 6.0 mg/kg once daily): 0.17 mL
- Paw Swelling (mL) on Day 20, Mean (Lewis rats; 10.0 mg/kg once daily): 0.12 mL
- disease progression as measured by paw swelling (Lewis rats; Lewis rat, prophylactic oral dosing): inhibit disease progression
